For eight compounds, TGI and GI50 results are on record in PubChem BioAssay (NCI).

Molecules are shown by their SMILES.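 The compound was tested at five concentrations on cells cultured in 96-well plates, with a 48-hour exposure period. GI50 = concentration required for 50% inhibition of growth. TGI denotes the concentration required for complete inhibition of growth.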 Where only a bound is given, the exact number is not on record here.

Test systems include NCI-H460 lung; IGROV1 ovarian; CAKI-1 renal; MDA-MB-435; NCI/ADR-RES ovarian; DU-145 prostate; LOX IMVI melanoma; PC-3 prostate; NCI-H23 lung; HCT-116 colon.
What all share (assay): growth of human tumour cells (NCI), 48 h

With `CC(=O)NC1=C(Sc2ccc(Cl)cc2)C(=O)c2ccccc2C1=O`, the TGI in the test on NCI-H460 lung is 23.2 µM; with IGROV1 ovarian, 17.1 µM; in the test with CAKI-1 renal it was 14.6 µM; with MDA-MB-435 it was 4.56 µM; with NCI/ADR-RES ovarian, 6.31 µM; in the test with DU-145 prostate it was 30.5 µM. Further, the figures for the TGI in the test with LOX IMVI melanoma, in the test on PC-3 prostate and with NCI-H23 lung were 14 µM, 11.7 µM and 37 µM, respectively.

For the compound `CC(OC(=O)N(N(CCCl)S(C)(=O)=O)S(C)(=O)=O)c1ccc([N+](=O)[O-])cc1` (stereo not drawn), the GI50 was more than 78.7 µM in the test with NCI-H460 lung; more than 96.6 µM with IGROV1 ovarian; 64.3 µM in the test with CAKI-1 renal; 99.4 µM in the test on MDA-MB-435; more than 66 µM in the test with HCT-116 colon; 35.4 µM in the test with NCI/ADR-RES ovarian. In addition, the GI50 in the test on DU-145 prostate is 24 µM; with LOX IMVI melanoma, 51.2 µM; in the test on PC-3 prostate, more than 66.7 µM; in the test on NCI-H23 lung, 39.1 µM. For the same compound, the TGI in the test with NCI-H460 lung, with IGROV1 ovarian, in the test with CAKI-1 renal, with MDA-MB-435, in the test with HCT-116 colon and in the test with NCI/ADR-RES ovarian was more than 100 µM throughout. In addition, the TGI in the test with DU-145 prostate, with LOX IMVI melanoma, in the test with PC-3 prostate and with NCI-H23 lung was more than 100 µM in each case.

Turning to `COc1ccc2nccc(/C=C/c3ccnc4ccc(OC)cc34)c2c1`, the GI50 with NCI-H460 lung is more than 100 µM; with IGROV1 ovarian it was 28.4 µM; in the test with CAKI-1 renal it was more than 82.4 µM; in the test with MDA-MB-435 it was more than 79.5 µM; with HCT-116 colon, 38.7 µM; in the test with NCI/ADR-RES ovarian, more than 100 µM. The GI50 in the test with DU-145 prostate was more than 42.4 µM; in the test with LOX IMVI melanoma it was 69.3 µM; with PC-3 prostate, more than 47.5 µM; in the test with NCI-H23 lung, more than 100 µM. For the same compound, the TGI with NCI-H460 lung was more than 100 µM; in the test on IGROV1 ovarian, 75.7 µM; in the test on CAKI-1 renal, more than 100 µM; in the test on MDA-MB-435, more than 100 µM; in the test with HCT-116 colon it was more than 100 µM; with NCI/ADR-RES ovarian it was more than 100 µM. Besides, the TGI with DU-145 prostate was more than 63.4 µM; in the test on LOX IMVI melanoma it was more than 100 µM; in the test on PC-3 prostate, more than 79.9 µM; in the test on NCI-H23 lung it was more than 100 µM.

With `Oc1c(CNCCNCc2cc(Cl)cc(Cc3ccccc3)c2O)cc(Cl)cc1Cc1ccccc1`, the GI50 was 0.331 µM in the test on NCI-H460 lung; 0.475 µM with IGROV1 ovarian; 0.338 µM with CAKI-1 renal; 0.435 µM with MDA-MB-435; 0.398 µM in the test on HCT-116 colon; 0.364 µM in the test on NCI/ADR-RES ovarian. The GI50 with DU-145 prostate is 0.303 µM; in the test on LOX IMVI melanoma, 0.136 µM; in the test on PC-3 prostate, 0.62 µM; in the test on NCI-H23 lung, 0.668 µM. Further, the TGI with NCI-H460 lung amounted to 12.2 µM; in the test on IGROV1 ovarian, 16.3 µM; in the test on CAKI-1 renal, 18.7 µM; with MDA-MB-435, 13.2 µM; in the test on HCT-116 colon it was 13.2 µM; in the test on NCI/ADR-RES ovarian, 18.3 µM. The TGI is 57.1 µM in the test on DU-145 prostate, 1.66 µM in the test on LOX IMVI melanoma, more than 100 µM with PC-3 prostate and 17.6 µM with NCI-H23 lung.

`FC(F)(F)c1[nH]ncc1-c1nc2ccc3[nH]ncc3c2c2c1CCCC2`: the GI50 with NCI-H460 lung is 1.72 µM; in the test on IGROV1 ovarian it was 0.942 µM; in the test with CAKI-1 renal it was 1.06 µM; in the test on MDA-MB-435 it was 1.78 µM; in the test with HCT-116 colon, 0.523 µM; with NCI/ADR-RES ovarian it was 2.49 µM. In addition, the GI50 is 1.58 µM in the test with DU-145 prostate, 1.09 µM in the test with LOX IMVI melanoma, 2.08 µM in the test on PC-3 prostate and 1.52 µM with NCI-H23 lung. For the same compound, the TGI stood at 9.34 µM in the test with NCI-H460 lung; 5 µM with IGROV1 ovarian; 10.4 µM with CAKI-1 renal; 9.55 µM in the test with MDA-MB-435; 10.6 µM in the test with HCT-116 colon; 13.9 µM with NCI/ADR-RES ovarian. The TGI amounted to 10.9 µM in the test on DU-145 prostate, 2.6 µM with LOX IMVI melanoma, 8.73 µM with PC-3 prostate and 4.32 µM with NCI-H23 lung.

As to `Cc1cc2c(cc1C)[n+](Cc1ccc3ccccc3n1)cn2Cc1ccc2ccccc2n1`, the GI50 was 0.63 µM in the test with NCI-H460 lung; 0.57 µM with IGROV1 ovarian; 0.571 µM in the test on MDA-MB-435; 0.407 µM in the test on HCT-116 colon; 16.7 µM in the test on NCI/ADR-RES ovarian; 1.6 µM in the test on DU-145 prostate. Moreover, the GI50 with LOX IMVI melanoma was 0.669 µM; in the test on PC-3 prostate, 0.948 µM; with NCI-H23 lung, 0.736 µM. Further, the TGI turned out to be 2.21 µM in the test with NCI-H460 lung; 2.21 µM with IGROV1 ovarian; 2.05 µM with MDA-MB-435; 1.74 µM with HCT-116 colon; 50.9 µM in the test on NCI/ADR-RES ovarian; 6.56 µM in the test on DU-145 prostate. Further, the TGI is 2 µM with LOX IMVI melanoma, 2.98 µM with PC-3 prostate and 3.53 µM in the test with NCI-H23 lung.

Regarding `CNCCCn1c2c(c3ccc(F)cc3c1=O)C(=O)c1cc(OC)cnc1-2`, the GI50 with NCI-H460 lung is 0.0492 µM; with IGROV1 ovarian, 0.32 µM; in the test on MDA-MB-435 it was 0.471 µM; in the test on HCT-116 colon, 0.143 µM; in the test with NCI/ADR-RES ovarian, 0.431 µM; with DU-145 prostate, 0.202 µM. Moreover, the GI50 with LOX IMVI melanoma was 0.142 µM; with PC-3 prostate it was 0.37 µM; in the test with NCI-H23 lung, 0.312 µM. For the same compound, the TGI in the test on NCI-H460 lung came to 0.261 µM; in the test with IGROV1 ovarian, 4.11 µM; in the test on MDA-MB-435 it was 1.81 µM; in the test with HCT-116 colon, 0.617 µM; with NCI/ADR-RES ovarian, 9.51 µM; in the test with DU-145 prostate, 1.12 µM. For the same compound, the figures for the TGI in the test on LOX IMVI melanoma, in the test on PC-3 prostate and in the test with NCI-H23 lung were 0.375 µM, 8.1 µM and 1.97 µM, respectively.

As to `N#C/C(=C\c1cccc2cnccc12)N1N=NC2C=CC=CC21` (stereo not drawn), the GI50 in the test on NCI-H460 lung is 3.98 µM; in the test on IGROV1 ovarian, 2.7 µM; with CAKI-1 renal, 1.7 µM; in the test with MDA-MB-435 it was 2.87 µM; in the test with NCI/ADR-RES ovarian, 3.53 µM; in the test on DU-145 prostate, 3.55 µM. Also, the GI50 with LOX IMVI melanoma is 3.01 µM; with PC-3 prostate, 2.76 µM; in the test on NCI-H23 lung it was 3.27 µM. The TGI is 32.7 µM in the test with NCI-H460 lung; more than 100 µM with IGROV1 ovarian; more than 100 µM in the test with CAKI-1 renal; more than 100 µM with MDA-MB-435; more than 100 µM in the test on NCI/ADR-RES ovarian; more than 100 µM in the test with DU-145 prostate. The TGI in the test on LOX IMVI melanoma, with PC-3 prostate and with NCI-H23 lung was more than 100 µM in each case.
